One test concerns KURAMOCHI
The experiment in a line: drug sensitivity score (DSS2) on cancer cell count; higher = more sensitive; extreme values may be limits of the assay. As to conditions: 72 h. The method, boiled down: (§1)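 Ovarian cancer cells were grown alone or in 1:1 direct co-culture with lung or skin fibroblasts. They were plated onto 384-well plates pre-spotted acoustically with 528 approved and investigational compounds at 5 concentrations, then treated for 72 h. Cells were fixed, immunostained for CK8/18 with Hoechst, and imaged at 10× (4 fields) to count cancer cells. A drug sensitivity score (DSS2) was derived in Breeze from 4-parameter logistic fits, with screen quality checked by Z'.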

In the next test the test system is OVCAR8. Described as above. Particulars: 72 h. The method, boiled down: as §1
Setting [1] is: co-cultured fibroblast: BJHTERT.
Setting [2] is: co-cultured fibroblast: none (monoculture).

For the compound `C=C1C[C@@H]2[C@H](CC[C@]3(C)C(=O)CC[C@@H]23)[C@@]2(C)C=CC(=O)C=C12` [Exemestane], the drug sensitivity score in the test on KURAMOCHI (setting [1]) is 0 DSS; in the test on KURAMOCHI (co-cultured fibroblast: WI38), 0 DSS; in the test on KURAMOCHI (setting [2]), 0 DSS; in the test with OVCAR8 (setting [1]) it was 1.3 DSS; with OVCAR8 (co-cultured fibroblast: WI38), 0 DSS; in the test with OVCAR8 (setting [2]), 0 DSS.
In the case of `COc1cc2c(NC3CCN(C(C)C)CC3)nc(C3CCCCC3)nc2cc1OCCCN1CCCC1` [UNC0638], the drug sensitivity score with KURAMOCHI (setting [1]) is 4.4 DSS; in the test with KURAMOCHI (co-cultured fibroblast: WI38), 1.8 DSS; in the test on KURAMOCHI (setting [2]), 0 DSS; in the test on OVCAR8 (setting [1]), 7.1 DSS; in the test on OVCAR8 (co-cultured fibroblast: WI38), 0 DSS; in the test on OVCAR8 (setting [2]) it was 0.1 DSS.
`CNC(=O)c1ccccc1Sc1ccc2c(/C=C/c3ccccn3)n[nH]c2c1` [Axitinib]: the drug sensitivity score is 8.7 DSS with KURAMOCHI (setting [1]); 8.4 DSS with KURAMOCHI (co-cultured fibroblast: WI38); 7 DSS in the test with KURAMOCHI (setting [2]); 7.4 DSS with OVCAR8 (setting [1]); 5.6 DSS with OVCAR8 (co-cultured fibroblast: WI38); 6.7 DSS in the test on OVCAR8 (setting [2]).
With `Nc1cccc2c1C(=O)N(C1CCC(=O)NC1=O)C2=O` (stereo not drawn) [Pomalidomide], the drug sensitivity score with KURAMOCHI (setting [1]), in the test with KURAMOCHI (co-cultured fibroblast: WI38), in the test with KURAMOCHI (setting [2]), in the test on OVCAR8 (setting [1]), in the test on OVCAR8 (co-cultured fibroblast: WI38) and in the test on OVCAR8 (setting [2]) was 0 DSS throughout.
Turning to `CN(Cc1cnc2nc(N)nc(N)c2n1)c1ccc(C(=O)N[C@@H](CCC(=O)O)C(=O)O)cc1` [Methotrexate], the drug sensitivity score with KURAMOCHI (setting [1]) worked out at 5.9 DSS; with KURAMOCHI (co-cultured fibroblast: WI38), 0 DSS; with KURAMOCHI (setting [2]), 19.7 DSS; in the test on OVCAR8 (setting [1]), 12.3 DSS; in the test on OVCAR8 (co-cultured fibroblast: WI38) it was 12.4 DSS; in the test on OVCAR8 (setting [2]), 27.7 DSS.
As for `O=C(Nc1cccnc1)N1CCC(Cc2cccc(Oc3ccc(C(F)(F)F)cn3)c2)CC1` [PF-3845], the drug sensitivity score came to 0.5 DSS in the test with KURAMOCHI (setting [1]); 0 DSS with KURAMOCHI (co-cultured fibroblast: WI38); 0 DSS with KURAMOCHI (setting [2]); 0 DSS with OVCAR8 (setting [1]); 0 DSS in the test with OVCAR8 (co-cultured fibroblast: WI38); 1.9 DSS in the test on OVCAR8 (setting [2]).
On to `Nc1nc2[nH]cc(CCc3ccc(C(=O)N[C@@H](CCC(=O)O)C(=O)O)cc3)c2c(=O)[nH]1` [Pemetrexed], for which the drug sensitivity score in the test on KURAMOCHI (setting [1]) is 10.1 DSS; in the test with KURAMOCHI (co-cultured fibroblast: WI38) it was 16 DSS; in the test with KURAMOCHI (setting [2]), 13.6 DSS; with OVCAR8 (setting [1]) it was 16.4 DSS; in the test on OVCAR8 (co-cultured fibroblast: WI38) it was 19.3 DSS; in the test on OVCAR8 (setting [2]) it was 25.5 DSS.
Turning to `CC(C)[C@@H](CS(=O)(=O)C(C)C)N1C(=O)[C@@](C)(CC(=O)O)C[C@H](c2cccc(Cl)c2)[C@H]1c1ccc(Cl)cc1` [AMG-232], the drug sensitivity score came to 0.2 DSS in the test with KURAMOCHI (setting [1]); 0 DSS in the test with KURAMOCHI (co-cultured fibroblast: WI38); 0.5 DSS in the test on KURAMOCHI (setting [2]); 1.6 DSS in the test on OVCAR8 (setting [1]); 0 DSS in the test on OVCAR8 (co-cultured fibroblast: WI38); 0.7 DSS in the test on OVCAR8 (setting [2]).
Turning to `NC(=S)N/N=C/c1ncccc1N` [Triapine], the drug sensitivity score with KURAMOCHI (setting [1]) amounted to 4.5 DSS; with KURAMOCHI (co-cultured fibroblast: WI38), 6.3 DSS; with KURAMOCHI (setting [2]) it was 8.2 DSS; in the test on OVCAR8 (setting [1]), 5.2 DSS; with OVCAR8 (co-cultured fibroblast: WI38), 9.3 DSS; with OVCAR8 (setting [2]) it was 8.7 DSS.
As to `C=CC(=O)Nc1cccc(Nc2nc(Nc3ccc(OCCOC)cc3)ncc2F)c1` [Spebrutinib], the drug sensitivity score with KURAMOCHI (setting [1]), with KURAMOCHI (co-cultured fibroblast: WI38), with KURAMOCHI (setting [2]), in the test on OVCAR8 (setting [1]), in the test with OVCAR8 (co-cultured fibroblast: WI38) and in the test on OVCAR8 (setting [2]) was 0 DSS throughout.
For `COc1cc2c(Oc3ccc4[nH]c(C)cc4c3F)ncnc2cc1OCCCN1CCCC1` [Cediranib], the drug sensitivity score in the test with KURAMOCHI (setting [1]), in the test on KURAMOCHI (co-cultured fibroblast: WI38), in the test on KURAMOCHI (setting [2]), in the test on OVCAR8 (setting [1]), in the test with OVCAR8 (co-cultured fibroblast: WI38) and in the test on OVCAR8 (setting [2]) was 0 DSS each time.
Turning to `O=C(O)CNC(=O)c1c(O)c2ccccc2n(Cc2ccccc2)c1=O` [IOX-2], the drug sensitivity score with KURAMOCHI (setting [1]) was 0.4 DSS; in the test on KURAMOCHI (co-cultured fibroblast: WI38), 0 DSS; in the test on KURAMOCHI (setting [2]), 1.3 DSS; in the test with OVCAR8 (setting [1]) it was 0 DSS; in the test with OVCAR8 (co-cultured fibroblast: WI38), 0 DSS; in the test with OVCAR8 (setting [2]), 0.5 DSS.
For `NC(=O)c1cccc2cn(-c3ccc([C@@H]4CCCNC4)cc3)nc12` [Niraparib], the drug sensitivity score was determined as 5.8 DSS in the test with KURAMOCHI (setting [1]); 6.8 DSS with KURAMOCHI (co-cultured fibroblast: WI38); 5.1 DSS in the test on KURAMOCHI (setting [2]); 14.9 DSS with OVCAR8 (setting [1]); 8.1 DSS in the test with OVCAR8 (co-cultured fibroblast: WI38); 9 DSS with OVCAR8 (setting [2]).
